Paper PMC11664502, “Parahydrogen Polarization in Reverse Micelles and Application to Sensing of Protein–Ligand Binding” (Journal of the American Chemical Society, 2024)

Target: T1, thiaminase II (TenA) (Bacillus subtilis, UniProt P25052)
T1 sequence (P25052 1-236): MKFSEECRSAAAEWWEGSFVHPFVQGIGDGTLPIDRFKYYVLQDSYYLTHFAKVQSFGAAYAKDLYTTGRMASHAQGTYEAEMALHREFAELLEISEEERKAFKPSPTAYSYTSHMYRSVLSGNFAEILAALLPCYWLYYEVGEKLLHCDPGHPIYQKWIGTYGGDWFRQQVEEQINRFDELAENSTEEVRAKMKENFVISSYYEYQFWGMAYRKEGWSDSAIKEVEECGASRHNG
Experiment: nhPHIP hyperpolarized NMR of iridium hydride signals in reverse micelles; agrees with a titration of TenA with ABAP (KD […])
Format: binding

Kd: 39.7 ± 8.9 µM
SMILES: Nc1ccnc(NCc2ccccc2)n1 [L, 4-amino-2-benzylaminopyrimidine]
